# According to US7060822B1, “2-pyrazolin-5-ones” (Abbott GmbH & Co. KG, priority 1999, dated 2006):
row,SMILES,melting point
1,"O=C1NN=C(C2CC2)C1=Cc1cc2ccccc2[nH]1 [Example 311, 3-Cyclopropyl-4-[(indol-2-yl)methylene]-2-pyrazolin-5-one]",238 to 240 °C
2,"CN(C)Cc1c(C=C2C(=O)NN=C2C2CC2)[nH]c2ccccc12 [Example 312, 3-Cyclopropyl-4-[(3-dimethylaminomethylindol-2-yl)methylene]-2-pyrazolin-5-one]",202 °C (dec.)
3,"COc1ccc2[nH]c(C=C3C(=O)NN=C3OC(C)C)cc2c1 [Example 314, 3-Isopropoxy-4-[(5-methoxyindol-2-yl)methylene]-2-pyrazolin-5-one]",219 to 220 °C
4,"CC(C)OC1=NNC(=O)C1=Cc1cc2ccccc2n1C [Example 315, 3-Isopropoxy-4-[(1-methylindol-2-yl)methylene]-2-pyrazolin-5-one]",254 to 255 °C
5,"O=C1NN=C(C2CCOC2)C1=Cc1cc2ccccc2[nH]1 (stereo not drawn) [Example 316, 4-[(Indol-2-yl)methylene]-3-(tetrahydrofuran-3-yl)-2-pyrazolin-5-one]",180 to 183 °C
6,"COc1ccc2[nH]c(C=C3C(=O)NN=C3C3CC3)cc2c1 [Example 317, 3-Cyclopropyl-4-[(5-methoxyindol-2-yl)methylene]-2-pyrazolin-5-one]",221 to 224 °C
7,"O=C1NN=C(C2CC2)C1=Cc1cc2cc([N+](=O)[O-])ccc2[nH]1 [Example 318, 3-Cyclopropyl-4-[(5-nitroindol-2-yl)methylene]-2-pyrazolin-5-one]",316 to 320 °C
8,"O=C1NN=C(CCc2ccc(C(=O)O)cc2)C1=Cc1cc2ccccc2[nH]1 [Example 320, 3-(4-Carboxyphenylethyl)-4-[(indol-2-yl)methylene]-2-pyrazolin-5-one]",> 300 °C
9,"O=C1NN=C(c2ccccc2)C1=Cc1cc2ccccc2[nH]1 [Example 321, 4-[(Indol-2-yl)methylene]-3-phenyl-2-pyrazolin-5-one]",210 to 211 °C
10,"Cc1c(C=C2C(=O)NN=C2OC(C)C)[nH]c2ccccc12 [Example 322, 3-Isopropoxy-4-[(3-methylindol-2-yl)methylene]-2-pyrazolin-5-one]",241 to 243 °C
11,"COC(=O)C(Cc1c(C=C2C(=O)NN=C2OC(C)C)[nH]c2ccccc12)NC(C)=O (stereo not drawn) [Example 323, 3-Isopropoxy-4-{[3-(2-methoxycarbonyl-2-acetamidoethyl)indol-2-yl]methylene}-2-pyrazolin-5-one]",205 to 206 °C
12,"CCOC1=NNC(=O)C1=Cc1cc2ccccc2[nH]1 [Example 324, 3-Ethoxy-4-[(indol-2-yl)methylene]-2-pyrazolin-5-one]",265 to 267 °C
13,"COc1ccc2[nH]c(C=C3C(=O)NN=C3c3cnccn3)cc2c1 [Example 327, 4-[(5-Methoxyindol-2-yl)methylene]-3-pyrazinyl-2-pyrazolin-5-one]",272 to 274 °C
14,"COc1ccc2[nH]c(C=C3C(=O)NN=C3c3ccccn3)cc2c1 [Example 328, 4-[(5-Methoxyindol-2-yl)methylene]-3-(2-pyridyl)-2-pyrazolin-5-one]",170 to 172 °C
15,"CCOC1=NNC(=O)C1=Cc1cc2c([nH]1)CCC=C2Cl [Example 329, 4-[(4-Chloro-6,7-dihydroindol-2-yl)methylene]-3-ethoxy-2-pyrazolin-5-one]",177 to 203 °C
16,"O=C1NN=C(c2cnccn2)C1=Cc1cc2c([nH]1)CCC=C2Cl [Example 330, 4-[(4-Chloro-6,7-dihydroindol-2-yl)methylene]-3-pyrazinyl-2-pyrazolin-5-one]",206 to 209 °C
17,"CCOC1=NNC(=O)C1=Cc1[nH]c2ccccc2c1CN(C)C [Example 332, 4-[(3-Dimethylaminomethylindol-2-yl)methylene]-3-ethoxy-2-pyrazolin-5-one]",185 to 187 °C
18,"O=C1NN=C(Cc2ccccc2)C1=Cc1c[nH]c2ncccc12 [Example 333, 4-[(7-Azaindol-3-yl)methylene]-3-benzyl-2-pyrazolin-5-one]",274 to 277 °C
